Data published in patent US20250041284A1, “TREATMENT OF NEUROLOGICAL DISORDERS” (Praxis Precision Medicines, Inc., priority 2022, published 2025).
Entries after “also recorded” stand apart in the source; their conditions may differ.

Experiments:
[1] = tested on: psychomotor seizures induced by 6-Hz electrical stimulation in wild-type CD-1 mice; assay: 6-Hz psychomotor seizure model; format: in vivo, mouse; parameters: EC50 value, protection from psychomotor seizures: unit not given here
From the text: This study evaluated the efficacy of Compound 1 in attenuating psychomotor seizures induced by 6-Hz electrical stimulation at two different stimulation intensities (32 and 44 mA) in wild-type CD-1 mice. Psychomotor seizures are defined as the expression of at least one of the following behaviors: stun/immobility, forelimb clonus, straub tail or lateral head movement within 30 seconds of the stimulus. Protection is defined as a complete absence of the above behaviors within 30 seconds of the stimulus. Doses of Compound 1 used were 1 mg/kg, 3 mg/kg and 6 mg/kg administered orally. Valproate (600 mg/kg, administered intraperitoneally) was used as a positive control.
Male CD-1 mice (Charles River Laboratories; St. Constant, Quebec, CAN) were used for the study. Body weights at the time the experiment was carried out were 30-40 grams. The mice were group-housed in polycarbonate cages according to standard operating procedures. Animals were maintained on a 12-hour light/12 hour dark cycle, with all experimental activities occurring during the light phase. Food and water were available ad libitum. Mice acclimated to the test facility for at least 72 hours prior to testing.
Treatment was conducted using Compound 1 and 35% 2-hydroxypropyl-β-cyclodextrin (35% HPBCD, used as a negative control). Compound 1 stock solution was prepared fresh each experiment day in 35% HPBCD. […] Valproate was prepared fresh each experiment day in a vehicle of saline and dosed at 10 mL/kg.
Mice were administered vehicle (35% HPBCD), a single dose of Compound 1 (1 mg/kg, 3 mg/kg or 6 mg/kg) or valproate (600 mg/kg). Vehicle and Compound 1 were administered via oral gavage 30 minutes prior to […]. Valproate was administered as an intraperitoneal injection 60 minutes prior to the electrical stimulus.
Immediately prior to conducting the 6-Hz seizure test, a brief neurological assessment was performed. Each animal was visually assessed and received a score from 0 to 3 according to the following scoring system::neurological score of 0 corresponds to a normal status; neurological score of 1 corresponds to a modest decrease in spontaneous activity; neurological score of 2 corresponds to a marked decrease in spontaneous activity; and neurological score of 3 corresponds to loss of righting reflex.
Corneal electrodes moistened with saline (ECT unit 57800; Ugo Basile) were used to deliver the electrical stimulus (6-Hz, 0.2 millisecond pulse width, 3 seconds duration). The current delivered was either 32 mA or 44 mA. Immediately after the electrical stimulus, each mouse was monitored continuously for 30 seconds by an observer blinded to the treatment group. […] Mice were scored for the presence or absence of each seizure behavior, with a maximum total score of 4. […] At the end of the 6-Hz seizure test, plasma and brain samples were collected.
Mice were anesthetized with isoflurane, whole blood was collected via cardiac puncture and brains were harvested. Whole blood was collected in potassium EDTA tubes and centrifuged at ˜3300 g for 5 minutes at 4° C. to isolate plasma. Plasma and brain samples were stored at −80° C. and analyzed to determine levels of Compound 1.
All statistical analyses were conducted using GraphPad Prism 9.3. Seizure scores were compared using Kruskal-Wallis test, followed by Dunn's post hoc and p<0.05 was considered statistically significant.

human NaV1.6 = target: T1, human NaV1.6 (Homo sapiens, UniProt Q9UQD0); assay: Peak INa tonic block (TB), automated patch clamp in HEK cells; format: cell-based
T1 construct: HEK-293 cell lines stably expressing human NaV1.6 (NP_055006) were used; expressed in transfected cells
T1 sequence (Q9UQD0 whole entry): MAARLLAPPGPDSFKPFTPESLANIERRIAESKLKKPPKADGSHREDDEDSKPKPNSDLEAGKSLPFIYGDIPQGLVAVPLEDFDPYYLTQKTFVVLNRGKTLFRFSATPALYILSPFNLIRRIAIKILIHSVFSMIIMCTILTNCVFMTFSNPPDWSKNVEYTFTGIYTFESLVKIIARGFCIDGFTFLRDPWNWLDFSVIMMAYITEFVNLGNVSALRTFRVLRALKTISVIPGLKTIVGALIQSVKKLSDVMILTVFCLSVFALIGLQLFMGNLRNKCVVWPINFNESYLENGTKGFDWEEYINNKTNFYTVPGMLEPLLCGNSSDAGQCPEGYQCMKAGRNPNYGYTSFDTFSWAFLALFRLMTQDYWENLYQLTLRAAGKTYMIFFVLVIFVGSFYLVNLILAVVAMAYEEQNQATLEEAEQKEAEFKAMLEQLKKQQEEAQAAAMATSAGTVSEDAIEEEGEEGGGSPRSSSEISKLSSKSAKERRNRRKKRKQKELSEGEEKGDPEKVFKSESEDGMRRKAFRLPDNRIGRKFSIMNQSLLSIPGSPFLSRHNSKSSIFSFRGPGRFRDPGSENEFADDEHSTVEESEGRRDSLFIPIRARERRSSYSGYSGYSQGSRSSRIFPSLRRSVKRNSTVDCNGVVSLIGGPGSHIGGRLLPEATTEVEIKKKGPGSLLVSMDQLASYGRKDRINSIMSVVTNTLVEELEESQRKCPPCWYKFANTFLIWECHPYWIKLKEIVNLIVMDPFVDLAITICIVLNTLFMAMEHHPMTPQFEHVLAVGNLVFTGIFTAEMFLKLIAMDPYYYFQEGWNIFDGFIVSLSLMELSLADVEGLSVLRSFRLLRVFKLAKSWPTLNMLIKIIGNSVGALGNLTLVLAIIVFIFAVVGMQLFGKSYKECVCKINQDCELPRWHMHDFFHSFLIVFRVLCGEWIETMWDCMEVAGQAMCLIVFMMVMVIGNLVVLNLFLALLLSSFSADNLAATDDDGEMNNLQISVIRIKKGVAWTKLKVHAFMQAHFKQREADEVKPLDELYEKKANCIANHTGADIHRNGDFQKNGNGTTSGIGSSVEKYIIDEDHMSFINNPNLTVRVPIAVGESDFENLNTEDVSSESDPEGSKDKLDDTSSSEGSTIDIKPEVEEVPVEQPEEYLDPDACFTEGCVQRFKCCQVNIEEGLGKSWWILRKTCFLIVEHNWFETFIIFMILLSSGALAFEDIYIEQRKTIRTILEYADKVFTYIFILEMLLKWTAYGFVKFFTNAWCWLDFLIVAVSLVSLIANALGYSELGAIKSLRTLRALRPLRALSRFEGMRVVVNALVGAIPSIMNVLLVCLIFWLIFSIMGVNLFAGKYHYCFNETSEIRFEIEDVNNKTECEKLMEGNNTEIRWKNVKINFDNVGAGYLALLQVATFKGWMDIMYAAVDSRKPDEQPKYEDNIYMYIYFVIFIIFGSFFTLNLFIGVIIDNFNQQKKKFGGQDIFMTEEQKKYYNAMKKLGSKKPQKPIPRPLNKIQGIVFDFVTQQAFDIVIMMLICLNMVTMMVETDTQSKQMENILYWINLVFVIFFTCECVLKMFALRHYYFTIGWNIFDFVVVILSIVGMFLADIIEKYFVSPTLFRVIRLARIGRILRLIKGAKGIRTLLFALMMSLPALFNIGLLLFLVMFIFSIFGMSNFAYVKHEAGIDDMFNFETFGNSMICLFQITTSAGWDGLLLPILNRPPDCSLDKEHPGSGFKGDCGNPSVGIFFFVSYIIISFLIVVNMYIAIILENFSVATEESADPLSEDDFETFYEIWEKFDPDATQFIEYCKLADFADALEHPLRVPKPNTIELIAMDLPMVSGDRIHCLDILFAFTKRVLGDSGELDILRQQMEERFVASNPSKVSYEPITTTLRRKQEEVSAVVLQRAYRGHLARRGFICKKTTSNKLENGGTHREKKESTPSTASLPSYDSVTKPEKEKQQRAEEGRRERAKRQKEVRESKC

CCOC(F)(F)c1nnc2ccc(-c3cnc(OCC(F)(F)F)c(F)c3)cn12 [Compound 1]
seizure score ([1]; 6 mg/kg orally, 32 and 44 mA): significantly reduced the seizure score; also recorded: reduced seizure scores | neurological scores before 6-Hz test ([1]; 1, 3, 6 mg/kg orally): all neurological scores were zero; also recorded: Neurological scores for all doses of Compound 1 tested were normal | Plasma EC50 ([1]; 32 mA, 95% confidence interval in parentheses): 385 (383-386) ng/mL | Plasma EC50 ([1]; 44 mA): >441 ng/mL | ED50 ([1]; Mus musculus, dose-response curve, read-out: ED50 value, protection from psychomotor seizures): 1.9 mg/kg | EC50 value, protection from psychomotor seizures ([1]; plasma concentration-response curve): 147 | Ratio to Pers. INa (Peak INa TB) (human NaV1.6; peak INa TB IC50 / persistent INa IC50): 68 | Peak INa TB Hill slope (human NaV1.6; tonic block): (1.0) | IC50 (human NaV1.6; tonic block, Vm -120 mV, 0.2 Hz): 8.71 µM
